Measurements taken from patent US20260125371A1, “METHOD FOR INHIBITING CLOSTRIDIOIDES DIFFICILE SPORE GERMINATION” (UNIVERSITY OF NOTRE DAME DU LAC, priority 2022, published 2026).

Experiments:
[1] = test system: Lactobacillus reuteri HM-102; assay: MIC against Lactobacillus reuteri (gut bacteria); format: cell-based; details: Limosilactobacillus reuteri, HM102
[2] = test system: C. difficile strain ATCC43255 spores; assay: Spore germination inhibition assay; format: cell-based, Clostridioides difficile; details: Clostridioides difficile, 1 h, compound 45 μM, germinant 6 mM taurocholate and 12 mM glycine, OD600 over 60 min, duplicate
[3] = test system: Lactobacillus gasseri HM-644; assay: MIC against Lactobacillus gasseri (gut bacteria); format: cell-based; details: HM644
C. difficile strains = assay: MIC (microdilution) against panel of 101 C. difficile strains; format: cell-based, Clostridioides difficile; details: for MIC: Clostridioides difficile
[4] = C. difficile strains of Table 4

O=[N+]([O-])c1cnc(-c2nc(-c3ccc(OC4CCCC4)cc3)no2)[nH]1 [Compound 57, 3-(4-(Cyclopentyloxy)phenyl)-5-(4-nitro-1H-imidazol-2-yl)-1,2,4-oxadiazole]
> 128 µg/mL: MIC [1] | MIC [3]
< 10%: inhibition at 45 µM [2]
1 µg/mL: MIC90 (C. difficile strains; [4]) | MIC (C. difficile strains; strain HM-88) | MIC (C. difficile strains; strain NR-13433) | MIC (C. difficile strains; strain NR-32887) | MIC (C. difficile strains; strain NR-32888) | MIC (C. difficile strains; strain NR-32889)
0.25 µg/mL: MIC (C. difficile strains; BAA1801, strain BAA-1801) | MIC (C. difficile strains; C. difficile NR49302) | MIC (C. difficile strains; C. difficile NR49310) | MIC (C. difficile strains; strain HM-747) | MIC (C. difficile strains; strain NR49302) | MIC (C. difficile strains; strain NR49310) | MIC (C. difficile strains; strain NR-13438) | MIC (C. difficile strains; strain NR-32892) | MIC (C. difficile strains; strain NR-32895) | MIC (C. difficile strains; strain NR-32896) | MIC (C. difficile strains; strain NR-32897) | MIC (C. difficile strains; strain NR-32900) | MIC (C. difficile strains; strain NR-32903)
0.5 µg/mL: IMIC50 (101 strains) (C. difficile strains; 101 C. difficile strains) | MIC50 (C. difficile strains; [4]) | MIC (C. difficile strains; ATCC43598, strain ATCC43598) | MIC (C. difficile strains; strain HM-89) | MIC (C. difficile strains; strain HM-745) | MIC (C. difficile strains; strain HM-746) | MIC (C. difficile strains; strain NR49294) | MIC (C. difficile strains; strain NR49318) | MIC (C. difficile strains; strain NR-13427) | MIC (C. difficile strains; strain NR-13428) | MIC (C. difficile strains; strain NR-13429) | MIC (C. difficile strains; strain NR-13430) | MIC (C. difficile strains; strain NR-13431) | MIC (C. difficile strains; strain NR-13435) | MIC (C. difficile strains; strain NR-13436) | MIC (C. difficile strains; strain NR-13437) | MIC (C. difficile strains; strain NR-32882) | MIC (C. difficile strains; strain NR-32883) | MIC (C. difficile strains; strain NR-32884) | MIC (C. difficile strains; strain NR-32885) | MIC (C. difficile strains; strain NR-32886) | MIC (C. difficile strains; strain NR-32891) | MIC (C. difficile strains; strain NR-49277) | MIC (C. difficile strains; strain NR-49278) | MIC (C. difficile strains; strain NR-49279)
0.125 µg/mL: MIC (C. difficile strains; BAA1804, strain BAA-1804) | MIC (C. difficile strains; BAA1812, strain BAA-1812) | MIC (C. difficile strains; BAA1814, strain BAA-1814) | MIC (C. difficile strains; BAA1870, strain BAA-1870) | MIC (C. difficile strains; C. difficile 24531, resistant to VAN) | MIC (C. difficile strains; C. difficile NR49292) | MIC (C. difficile strains; C. difficile NR49305) | MIC (C. difficile strains; strain NR49292) | MIC (C. difficile strains; strain NR49305) | MIC (C. difficile strains; strain NR-13434) | MIC (C. difficile strains; strain NR-13553) | MIC (C. difficile strains; strain NR-32890) | MIC (C. difficile strains; strain NR-32904)
